Substitutions are numbered along the chain they refer to. Where a SMILES comes first, the peptide text is derived from it.
What was measured:
[1] = target: T1, hTAS1R2 + hTAS1R3 L800F^7.38 (Homo sapiens, UniProt Q7RTX0+Q8TE23, L800F); test: Calcium response (FLIPR), hTAS1R3 mutant coexpressed with hTAS1R2; format: cell-based; conditions: variant L800F^7.38; for Emax: read-out: maximal signal (% of wt)
T1 construct: expressed in transfected cells; host or cells: HEK293T cells stably expressing G16Gust44
T1 sequence (Q7RTX0 21-852 L800F): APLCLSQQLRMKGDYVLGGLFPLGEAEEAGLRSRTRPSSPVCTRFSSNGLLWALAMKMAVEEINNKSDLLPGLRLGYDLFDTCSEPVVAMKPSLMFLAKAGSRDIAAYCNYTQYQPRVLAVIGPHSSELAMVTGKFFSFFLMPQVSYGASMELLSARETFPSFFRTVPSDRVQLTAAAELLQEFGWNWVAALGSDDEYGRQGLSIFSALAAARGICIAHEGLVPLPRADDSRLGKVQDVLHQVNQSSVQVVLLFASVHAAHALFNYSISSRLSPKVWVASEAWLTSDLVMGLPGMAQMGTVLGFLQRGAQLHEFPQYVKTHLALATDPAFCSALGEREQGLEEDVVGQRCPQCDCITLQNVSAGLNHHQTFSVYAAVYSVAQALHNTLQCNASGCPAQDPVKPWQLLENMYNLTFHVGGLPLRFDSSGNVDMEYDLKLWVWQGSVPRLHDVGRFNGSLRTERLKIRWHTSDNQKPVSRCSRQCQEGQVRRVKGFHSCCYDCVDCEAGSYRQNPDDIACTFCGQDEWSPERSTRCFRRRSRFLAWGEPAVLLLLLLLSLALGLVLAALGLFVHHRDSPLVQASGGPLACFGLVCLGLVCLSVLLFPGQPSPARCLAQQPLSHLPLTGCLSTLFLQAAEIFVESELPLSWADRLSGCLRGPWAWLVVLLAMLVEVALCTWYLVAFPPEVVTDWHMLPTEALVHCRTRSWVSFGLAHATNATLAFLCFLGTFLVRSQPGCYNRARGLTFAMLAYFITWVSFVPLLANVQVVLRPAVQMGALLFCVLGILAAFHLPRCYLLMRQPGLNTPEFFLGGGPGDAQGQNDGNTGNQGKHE
T1 sequence (Q8TE23 20-839): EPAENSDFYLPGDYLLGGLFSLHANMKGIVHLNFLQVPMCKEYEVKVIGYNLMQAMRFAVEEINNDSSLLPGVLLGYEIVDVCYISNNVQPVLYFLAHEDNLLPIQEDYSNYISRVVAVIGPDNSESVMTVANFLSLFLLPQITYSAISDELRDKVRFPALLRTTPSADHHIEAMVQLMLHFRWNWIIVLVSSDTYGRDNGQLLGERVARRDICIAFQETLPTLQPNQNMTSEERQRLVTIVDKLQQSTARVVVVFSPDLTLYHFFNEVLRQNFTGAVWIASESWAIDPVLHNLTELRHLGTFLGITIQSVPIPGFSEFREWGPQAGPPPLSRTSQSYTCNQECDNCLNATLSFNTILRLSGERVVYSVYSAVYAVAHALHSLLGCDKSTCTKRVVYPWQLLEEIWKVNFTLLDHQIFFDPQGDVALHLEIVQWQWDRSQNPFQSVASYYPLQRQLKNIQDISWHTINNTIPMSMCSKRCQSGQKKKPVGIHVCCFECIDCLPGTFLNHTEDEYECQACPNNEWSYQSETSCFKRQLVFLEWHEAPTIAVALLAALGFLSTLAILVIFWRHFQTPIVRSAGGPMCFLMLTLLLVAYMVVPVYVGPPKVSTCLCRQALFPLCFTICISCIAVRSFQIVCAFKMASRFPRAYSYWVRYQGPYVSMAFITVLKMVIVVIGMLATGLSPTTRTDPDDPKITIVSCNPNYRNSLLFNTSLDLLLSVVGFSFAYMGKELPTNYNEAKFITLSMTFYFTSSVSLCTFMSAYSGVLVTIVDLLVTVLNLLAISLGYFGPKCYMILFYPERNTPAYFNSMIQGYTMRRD
In short: (§1)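 Each mutant receptor pair was expressed transiently in G16Gust44-expressing HEK293T cells; stimuli dissolved in C1 solution triggered calcium responses, recorded by fluorometric imaging and scaled to baseline fluorescence (ΔF/F) after mock correction, from at least three experiments run in duplicate.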

[2] = target: T2, hTAS1R2 + hTAS1R3 V779A^6.52 (Homo sapiens, UniProt Q7RTX0+Q8TE23, V779A); test: as above; format: cell-based; conditions: variant V779A^6.52; for Emax: read-out: maximal signal (% of wt)
T2 construct: expressed in transfected cells; host or cells: HEK293T cells stably expressing G16Gust44
T2 sequence (Q8TE23 20-839): T1 sequence (Q8TE23 20-839)
T2 sequence (Q7RTX0 21-852 V779A): T1 sequence (Q7RTX0 21-852 L800F) with V759A, F780L
In short: as §1

Row | EC50 [1] [µM] | Emax [1] [%] | EC50 [2] [µM] | Emax [2] [%] | Compound
1 | 1200 ± 300 | 90 ± 1 | 1200 ± 300 | 52 ± 10 | COC(=O)[C@H](Cc1ccccc1)NC(=O)[C@@H](N)CC(=O)O [aspartame] (HELM PEPTIDE1{D.F.[CO[*:1]]}$$$$V2.0)
2 | 200 ± 100 | 91 ± 70 | 200 ± 100 | 88 ± 14 | COc1ccc(CCC(=O)c2c(O)cc(O[C@@H]3O[C@H](CO)[C@@H](O)[C@H](O)[C@H]3O[C@@H]3O[C@@H](C)[C@H](O)[C@@H](O)[C@H]3O)cc2O)cc1O [NHDC, neohesperidin dihydrochalcone]

Reference: paper PMC2099433, “The binding site for neohesperidin dihydrochalcone at the human sweet taste receptor” (BMC Structural Biology, 2007)
